EC50, inhibition of growth and inhibition data for 38 compounds are collected here from article PMC3684613 (PLoS ONE, 2013).

pEC50: −log10 of the molar value. Read-outs that look alike come from different tables or passages of the source.

Experiment [1] deals with P. falciparum 3D7. Also on record: method as in ChEMBL-NTD. To be noted: ref ChEMBL-NTD, cited from earlier work.
Experiment [2] relates to P. falciparum 3D7. Briefly: DAPI stain fluorescent high content imaging assay, P. falciparum 3D7 (confirmatory screen, Avery). As to conditions: Plasmodium falciparum; for inhibition of growth at 5 µM: 3D7, read-out: percent_inh @ 5 uM; for pEC50: 3D7, read-out: EC50_nM.

With `OC1CCCCC1C1(NC(=S)Nc2ccccc2)CCCCC1` (stereo not shown) [MMV665980], the pEC50 in the experiment with P. falciparum 3D7 [1] (source GNF (GNF-Pf ids)) was 6.68. For the same compound, the inhibition of growth at 5 µM with P. falciparum 3D7 [2] was found to be 59%.

`CCCCCCc1cc(O)c2c3c(c(=O)oc2c1)CCC(C)C3` (stereo not shown) [MMV665987]: the pEC50 in the experiment on P. falciparum 3D7 [1] (source GNF (GNF-Pf ids)) is 6.44. For the same compound, in the experiment on P. falciparum 3D7 [2], the pEC50 is 6.27 and the inhibition of growth at 5 µM came to 96%.

For `Cc1nc2ccccc2c(O)c1CC=C(Cl)Cl` [MMV665994], in the experiment with P. falciparum 3D7 [1] (source GNF (GNF-Pf ids)), the pEC50 is 6.30. Besides, in the experiment with P. falciparum 3D7 [2], the pEC50 is 6.08 and the inhibition of growth at 5 µM is 89%.

As to `CN1c2ccccc2N(C)C1c1ccc2c(c1)OCO2` [MMV666009], the pEC50 in the experiment on P. falciparum 3D7 [1] (source GNF) is 5.95; in the experiment with P. falciparum 3D7 [2], 6.00. Also, the inhibition of growth at 5 µM in the experiment on P. falciparum 3D7 [2] was 60%.

For `Cc1ccc(OCCCCCCNCCO)c(C)c1` [MMV666020], the pEC50 in the experiment with P. falciparum 3D7 [1] (source GNF (GNF-Pf ids)) was 5.71. Besides, the inhibition of growth at 5 µM in the experiment on P. falciparum 3D7 [2] is 49%.

`Cc1ccc(-c2cc3c(nn2)-c2ccccc2C3=O)cc1` [MMV666021]: the pEC50 in the experiment with P. falciparum 3D7 [1] (source GNF) was 5.70; with P. falciparum 3D7 [2], 7.03. Moreover, the inhibition of growth at 5 µM in the experiment with P. falciparum 3D7 [2] turned out to be 99%.

With `COc1ccc(C(=O)NC(c2ccccc2Cl)c2cc(Cl)c3cccnc3c2O)cc1` (stereo not shown) [MMV666022], the pEC50 in the experiment with P. falciparum 3D7 [1] (source GNF (GNF-Pf ids)) was 5.63; in the experiment on P. falciparum 3D7 [2], 6.08. Further, the inhibition of growth at 5 µM in the experiment with P. falciparum 3D7 [2] turned out to be 96%.

Consider `c1ccc(Cn2c(N=Nc3c(Nc4ccccc4)ccc4ccccc34)nc3ccccc32)cc1` [MMV666023], for which the pEC50 in the experiment on P. falciparum 3D7 [1] (source GNF (GNF-Pf id)) is 5.56. Besides, in the experiment on P. falciparum 3D7 [2], the pEC50 was 7.43 and the inhibition of growth at 5 µM was 96%.

Turning to `OC(Cn1nnc2ccccc21)Cn1c2ccc(Br)cc2c2cc(Br)ccc21` (stereo not shown) [MMV666025], the pEC50 with P. falciparum 3D7 [1] (source GNF (GNF-Pf ids)) was 5.47. In addition, in the experiment with P. falciparum 3D7 [2], the pEC50 is 5.90 and the inhibition of growth at 5 µM is 98%.

Regarding `COc1ccc(-c2cc3c(nn2)-c2ccccc2C3=O)cc1` [MMV666026], in the experiment with P. falciparum 3D7 [1] (source GNF (GNF-Pf ids)), the pEC50 was 5.42. For the same compound, the inhibition of growth at 5 µM in the experiment with P. falciparum 3D7 [2] stood at 97%.

On to `COc1ccc(C(=O)NC(c2ccc(Cl)cc2Cl)c2cc(Cl)c3cccnc3c2O)cc1` (stereo not shown) [MMV666054], for which, in the experiment with P. falciparum 3D7 [1] (source GSK (TCMDC ids)), the pEC50 was 6.30. In addition, in the experiment on P. falciparum 3D7 [2], the pEC50 was 6.29 and the inhibition of growth at 5 µM came out at 96%.

`O=C(Nc1ccc(Cl)cc1C(=O)Nc1ccncc1)c1ccc(Cl)cc1Cl` [MMV666057]: the pEC50 with P. falciparum 3D7 [1] (source GSK) was 6.21. For the same compound, the inhibition of growth at 5 µM in the experiment on P. falciparum 3D7 [2] worked out at 94%.

Turning to `COc1ccc(CN2CCCC(C(=O)c3ccc(C(F)(F)F)cc3)C2)c(O)c1` (stereo not shown) [MMV666060], the pEC50 in the experiment with P. falciparum 3D7 [1] (source GSK (TCMDC ids)) is 6.07. Also, in the experiment on P. falciparum 3D7 [2], the inhibition of growth at 5 µM came out at 97%.

Consider `COc1cccc(O)c1CN1CCC2(CCCN(Cc3ccc(F)cc3)C2)C1` (stereo not shown) [MMV666061], for which the pEC50 in the experiment with P. falciparum 3D7 [1] (source GSK) is 6.06. Also, in the experiment on P. falciparum 3D7 [2], the pEC50 was 6.28 and the inhibition of growth at 5 µM was 95%.

For the compound `Cc1ccc(N2C(=O)C3C(C2=O)C2(c4ccccc4)C(=O)C3(c3ccccc3)C(c3ccccc3)=C2c2ccccc2)cc1` (stereo not shown) [MMV666062], in the experiment on P. falciparum 3D7 [1] (source GSK (TCMDC id)), the pEC50 is 6.06. In the experiment on P. falciparum 3D7 [2], the pEC50 is 6.55 and the inhibition of growth at 5 µM worked out at 98%.

For `COc1ccc(CNC2CCN(c3ccc(NC(=O)c4cccc(Cl)c4)cc3)CC2)cc1OC` [MMV666067], in the experiment with P. falciparum 3D7 [1] (source GSK), the pEC50 is 5.99. Further, in the experiment with P. falciparum 3D7 [2], the pEC50 was 6.18 and the inhibition of growth at 5 µM was determined as 97%.

For `COc1ccc(CCN2CCC(CN(C)Cc3cnn(-c4ccccc4)c3)CC2)cc1` [MMV666069], the pEC50 in the experiment on P. falciparum 3D7 [1] (source GSK) was 5.94. In the experiment with P. falciparum 3D7 [2], the pEC50 is 5.84 and the inhibition of growth at 5 µM worked out at 96%.

Consider `O=C(NC1CCCC1)c1ccc(N2CCC(NCc3cccc(C(F)(F)F)c3)CC2)cc1` [MMV666070], for which the pEC50 with P. falciparum 3D7 [1] (source GSK) was 5.88. Besides, the inhibition of growth at 5 µM with P. falciparum 3D7 [2] came to 93%.

Take `Cc1ccc(CN2CCC(C(=O)Nc3ccc(-c4cc5ccccc5[nH]4)cc3)CC2)o1` [MMV666071]: the pEC50 in the experiment on P. falciparum 3D7 [1] (source GSK) was 5.85. The inhibition of growth at 5 µM in the experiment with P. falciparum 3D7 [2] came out at 77%.

Consider `COCCNC(=O)c1ccc(OC2CCN(Cc3ccc(F)c(F)c3)CC2)c(Cl)c1` [MMV666072], for which the pEC50 with P. falciparum 3D7 [1] (source GSK) was 5.83. Also, in the experiment on P. falciparum 3D7 [2], the inhibition of growth at 5 µM turned out to be 91%.

For `COc1ccc(C2N(C)c3ccccc3N2C)cc1` [MMV666075], in the experiment on P. falciparum 3D7 [1] (source StJude), the pEC50 is 4.82. Further, in the experiment with P. falciparum 3D7 [2], the inhibition of growth at 5 µM is 62%.

Turning to `Cc1ccc2cc3c(N)c4c(C)ccc(C)c4nc3nc2c1` [MMV666079], the pEC50 with P. falciparum 3D7 [1] (source GNF (GNF-Pf ids)) was 6.37; in the experiment with P. falciparum 3D7 [2], 5.88. Also, in the experiment with P. falciparum 3D7 [2], the inhibition of growth at 5 µM turned out to be 98%.

With `O=C(NC(c1ccccc1)c1ccc2cccnc2c1O)c1ccccc1` (stereo not shown) [MMV666080], the pEC50 in the experiment with P. falciparum 3D7 [1] (source GNF) was 6.27; with P. falciparum 3D7 [1] (source GSK), 6.37; in the experiment on P. falciparum 3D7 [2], 5.93. For the same compound, in the experiment with P. falciparum 3D7 [2], the inhibition of growth at 5 µM amounted to 95%.

As for `CCCc1c(C)nc2ccccc2c1O` [MMV666081], in the experiment with P. falciparum 3D7 [1] (source GNF), the pEC50 is 6.20. The inhibition of growth at 5 µM in the experiment on P. falciparum 3D7 [2] was determined as 88%.

Take `CCCC(c1nnnn1C1CCCCC1)N1CCN(C(=O)c2ccco2)CC1` (stereo not shown) [MMV666093]: the pEC50 with P. falciparum 3D7 [1] (source GNF) is 5.88. In addition, the inhibition of growth at 5 µM with P. falciparum 3D7 [2] stood at 82%.

In the case of `CCCc1c(C)nc2ccc(Br)cc2c1O` [MMV666095], the pEC50 in the experiment on P. falciparum 3D7 [1] (source GNF (GNF-Pf ids)) was 5.82; with P. falciparum 3D7 [2], 5.92. The inhibition of growth at 5 µM in the experiment on P. falciparum 3D7 [2] was found to be 64%.

In the case of `COc1ccc(C2=C(c3ccc(OC)cc3)C3(c4ccccc4)C(=O)C2(c2ccccc2)C2C(=O)N(c4ccc(C)cc4)C(=O)C23)cc1` (stereo not shown) [MMV666101], the pEC50 with P. falciparum 3D7 [1] (source GNF (GNF-Pf id)) is 4.90. For the same compound, in the experiment with P. falciparum 3D7 [2], the pEC50 is 6.83 and the inhibition of growth at 5 µM was determined as 98%.

As for `CN(C)c1ccc(-c2nc3cc(N)ccc3[nH]2)cc1` [MMV666102], the pEC50 in the experiment with P. falciparum 3D7 [1] (source GSK) was 6.62. For the same compound, the inhibition of growth at 5 µM in the experiment on P. falciparum 3D7 [2] stood at 64%.

Turning to `CCn1c(SCC(=O)Nc2cc(C(F)(F)F)ccc2Cl)nc2ccccc2c1=O` [MMV666103], in the experiment with P. falciparum 3D7 [1] (source GSK), the pEC50 is 6.40. In the experiment on P. falciparum 3D7 [2], the pEC50 is 6.00 and the inhibition of growth at 5 µM stood at 91%.

In the case of `COCCN(C(=O)Cc1cccs1)C(C(=O)NCc1ccc(OC)cc1)c1ccc(C(C)C)cc1` (stereo not shown) [MMV666105], the pEC50 was 6.07 in the experiment on P. falciparum 3D7 [1] (source GSK) and 5.92 in the experiment on P. falciparum 3D7 [2]. The inhibition of growth at 5 µM with P. falciparum 3D7 [2] is 92%.

As to `O=C(NC1CCCCC1)C(c1cccs1)N(CCc1ccccc1)C(=O)c1ccco1` (stereo not shown) [MMV666106], in the experiment on P. falciparum 3D7 [1] (source GSK (TCMDC ids)), the pEC50 is 5.98. In addition, in the experiment on P. falciparum 3D7 [2], the pEC50 is 5.97 and the inhibition of growth at 5 µM was found to be 90%.

Consider `O=C(CCc1ccco1)NC1CCN(CC2(c3ccc(Cl)cc3)CCC2)CC1` [MMV666108], for which the pEC50 in the experiment on P. falciparum 3D7 [1] (source GSK) was 5.84. Moreover, in the experiment with P. falciparum 3D7 [2], the pEC50 was 5.94 and the inhibition of growth at 5 µM was 96%.

With `CCOC(=O)C1(Cc2ccccc2)CCN(Cc2cccc(OC)c2O)CC1` [MMV666109], the pEC50 with P. falciparum 3D7 [1] (source StJude (SJ ids)) is 5.64. In addition, the inhibition of growth at 5 µM in the experiment with P. falciparum 3D7 [2] was 95%.

Turning to `C=C(C)CCC(C)N1CCC(N2CCC(C(=O)NCCc3ccccc3)CC2)CC1` (stereo not shown) [MMV666110], the results for the pEC50 in the experiment on P. falciparum 3D7 [1] (source StJude) and with P. falciparum 3D7 [2] were 5.37 and 5.76, respectively. Also, the inhibition of growth at 5 µM with P. falciparum 3D7 [2] worked out at 96%.

As to `Oc1ccccc1CN1CCC2(CCCN(Cc3ccccc3F)C2)C1` (stereo not shown) [MMV666116], the pEC50 is 6.17 with P. falciparum 3D7 [1] (original screening data, source (GSK, GNF, StJude), several values separated by ';' in order of sources) and 6.26 in the experiment with P. falciparum 3D7 [2]. Moreover, the inhibition of growth at 5 µM in the experiment with P. falciparum 3D7 [2] came to 98%.

Take `CC(C)(C)c1ccc(C(=O)Nc2c3c(nn2-c2cccc(Cl)c2)CSC3)cc1` [MMV666123]: the pEC50 with P. falciparum 3D7 [1] (source StJude (SJ ids)) is 4.82. Further, the inhibition of growth at 5 µM in the experiment on P. falciparum 3D7 [2] was found to be 93%.

Regarding `CC(=O)c1ccc(NC(=O)CSc2nc(-c3ccccc3Cl)ns2)cc1` [MMV666124], the pEC50 in the experiment on P. falciparum 3D7 [1] (source GSK (TCMDC ids)) was 5.95. Further, the inhibition at 2.5 µM in the experiment with P. falciparum 3D7 [2] (3D7, read-out: % inh. At 2.5 uM) came to 88%.

In the case of `CC1=C(CC(=O)c2cccc([N+](=O)[O-])c2)C(=O)c2ccccc2C1=O` [MMV666125], the figures for the pEC50 in the experiment on P. falciparum 3D7 [1] (source GNF (GNF-Pf ids)) and with P. falciparum 3D7 [2] were 5.55 and 6.42, respectively. Also, the inhibition of growth at 5 µM in the experiment on P. falciparum 3D7 [2] stood at 95%.
